{"source": "patent US20180193294A1", "about": "“Dehydroabietic acid (DHAA) derivatives for use as ion channel openers” (priority 2015, published 2018)", "data": [{"target": "3R Shaker K channel (Drosophila melanogaster, UniProt P08510, A359R/M356R)", "sequence (P08510 whole entry M356R/A359R)": "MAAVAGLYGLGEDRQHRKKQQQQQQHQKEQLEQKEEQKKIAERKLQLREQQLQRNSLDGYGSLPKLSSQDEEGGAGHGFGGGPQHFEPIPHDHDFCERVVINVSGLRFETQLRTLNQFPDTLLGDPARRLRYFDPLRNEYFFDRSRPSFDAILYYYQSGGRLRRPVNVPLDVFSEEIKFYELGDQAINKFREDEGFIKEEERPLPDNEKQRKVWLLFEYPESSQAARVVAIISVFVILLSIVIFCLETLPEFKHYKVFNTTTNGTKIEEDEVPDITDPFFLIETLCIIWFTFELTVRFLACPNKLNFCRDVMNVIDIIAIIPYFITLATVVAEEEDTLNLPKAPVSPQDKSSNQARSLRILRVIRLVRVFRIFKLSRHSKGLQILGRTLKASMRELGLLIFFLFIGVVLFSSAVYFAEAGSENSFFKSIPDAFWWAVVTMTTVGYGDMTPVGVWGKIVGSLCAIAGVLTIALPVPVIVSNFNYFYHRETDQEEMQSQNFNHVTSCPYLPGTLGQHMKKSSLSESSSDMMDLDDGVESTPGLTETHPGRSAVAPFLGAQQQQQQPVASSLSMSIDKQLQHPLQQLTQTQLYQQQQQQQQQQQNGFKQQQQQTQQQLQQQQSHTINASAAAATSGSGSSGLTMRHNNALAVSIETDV", "assay": "physchem", "assay_type": "cell-based", "settings": "Table 1; 100 μM, pH 7.4, Xenopus oocytes", "from_the_text": "A 3R Shaker K channel is a modified Shaker K channel where residues 356 and 359 are mutated to arginines.\nAll animal experiments were approved by the local Animal Care and Use Committee and followed international guidelines. A modified Shaker H4 channel^30, with removed N-type inactivation (ShH4IR)^31, here called the wild type (WT) channel, was expressed in oocytes. In addition, a modified 3R Shaker K channel where two introduced positive charged arginines (M356R and A359R) in addition to one native arginine (R362) makes the channel more sensitive to DHA^16, was expressed in oocytes and in a CHO—K1 stable cell line.\nAfrican clawed frogs (Xenopus laevis) were anesthetized with 1.4 g/L ethyl 3-aminobenzoate methanesulfonate salt (tricaine). After an incision through the abdomen a batch of oocytes were removed. Clusters of oocytes were separated by incubation for ˜1 h in a Ca-free O—R2 solution (in mM: 82.5 NaCl, 2 KCl, 5 HEPES, and 1 MgCl2; pH adjusted to 7.4 by NaOH) containing Liberase Blendzyme. The oocytes were then incubated at 8° C. in a modified Barth's solution (MBS; in mM: 88 NaCl, 1 KCl, 2.4 NaHCO3, 15 HEPES, 0.33 Ca(NO3)2, 0.41 CaCl2, and 0.82 MgSO4; pH adjusted to 7.6 by NaOH) supplemented with penicillin (25 U/ml), streptomycin (25 μg/ml), and sodium pyruvate (2.5 mM) 2-24 hours before injection. Fifty nl of cRNA (50 pg) were injected into each oocyte using a Nanoject injector (Drummond Scientific, Broomall, Pa.). Injected oocytes were kept at 8° C. in MBS until one day before electrophysiological recordings, when they were incubated at 16° C. All chemicals were supplied from Sigma-Aldrich (Stockholm, Sweden) if not stated otherwise.\nAll manual electrophysiological recordings were performed at room temperature (20-23° C.), using a GeneClamp 500B amplifier (for oocytes) or a Axopatch 200B amplifier (for manual patch clamp of CHO—K1 cells and DRG neurons) and a Digidata 1440A digitizer and pClamp 10 software (all from Molecular Devices, Inc., Sunnyvale, Calif., USA). Compounds were dissolved to 100 mM in 99.5% EtOH and stored at −20° C. Compounds were diluted in extracellular solution to the desired test concentration.\nThe oocyte was placed in a bath surrounded by 1K extracellular solution that contained (in mM): 88 NaCl, 1 KCl, 15 HEPES, 0.4 CaCl2, and 0.8 MgCl2, pH adjusted to 7.4 by NaOH (reaching a sodium concentration of ˜100 mM). Control solution was added to the bath with a gravity driven perfusion system. Compound solution was added to the bath manually with a syringe. Two glass microelectrodes were inserted into the oocyte using micromanipulators. […] All channels were closed when the potential was clamped to −80 mV and this voltage was set as the holding potential. Currents were evoked from the holding potential of −80 mV by 100-ms long, 5-mV steps ranging from −80 up to +50 mV (WT) and +70 mV (3R).\nConductance GK(V) was calculated as GK(V)=[…], (Eq. 1) where IK is the average current from the steady-state phase at the end of each 100-ms pulse, V is the membrane voltage, and Vrev is the reversal potential for K^+, (set to −80 mV for the oocytes, and calculated to be −89 mV for the CHO—K1 cells).\nG(V)=A/(1+exp((V1/2−V)/s))^n (Eq. 2) where A is amplitude of the curve, V is the absolute membrane voltage, V1/2 is the midpoint, s is the slope and n is an exponent set to 4^17. The compound-induced G(V) shift was determined at the 10% level of the maximum conductance in control solution^17. The compound-induced G(V) shift in CHO—K1 was quantified by subtracting the control V1/2 from the compound V1/2 when n was set to 1.\nData for concentration and pH dependent G(V) shifts (ΔV) in oocytes were fit with a dose-response equation ΔV=ΔVmax/(1+c1/2/c), (Eq. 3) where Δvmax is the maximal shift, c1/2 is half maximal effective concentration/pKa value and c is the concentration.", "units": {"G(V) shift": "mV"}, "values": [{"compound": "C=CCO/N=C1\\CC2[C@](C)(C(=O)O)CCC[C@]2(C)c2cc(F)c(C(C)C)cc21", "note": "(stereo partly drawn) [Wu52, (1R,4aS,E)-9-((allyloxy)imino)-6-fluoro-7-isopropyl-1,4a-dimethyl-1,2,3,4,4a,9,10,10a-octahydrophenanthrene-1-carboxylic acid]", "G(V) shift": "−20.2"}, {"compound": "C=CCON=C1CC2C(C)(C(=O)O)CCCC2(C)c2ccc(C(C)C)c(F)c21", "note": "(stereo not shown) [Wu53]", "G(V) shift": "−9.2"}, {"compound": "CON=C1CC2C(C)(C(=O)O)CCCC2(C)c2ccc(C(C)C)c(F)c21", "note": "(stereo not shown) [Wu54]", "G(V) shift": "−9.0"}, {"compound": "CO/N=C1\\CC2[C@](C)(C(=O)O)CCC[C@]2(C)c2cc(F)c(C(C)C)cc21", "note": "(stereo partly drawn) [Wu55, (1R,4aS,E)-6-fluoro-7-isopropyl-9-(methoxyimino)-1,4a-dimethyl-1,2,3,4,4a,9,10,10a-octahydrophenanthrene-1-carboxylic acid]", "G(V) shift": "−19.9"}, {"compound": "CC(C)c1ccc2c(c1F)CC[C@H]1[C@](C)(C(=O)O)CCC[C@]21C", "note": "[Wu56, (1R,4aS,10aR)-8-fluoro-7-isopropyl-1,4a-dimethyl-1,2,3,4,4a,9,10,10a-octahydrophenanthrene-1-carboxylic acid]", "G(V) shift": "−6.6"}, {"compound": "CC(C)c1cc2c(cc1I)[C@@]1(C)CCC[C@@](C)(C(=O)O)C1CC2", "note": "(stereo partly drawn) [Wu60, (1R,4aS,E)-6-iodo-7-isopropyl-1,4a-dimethyl-1,2,3,4,4a,9,10,10a-octahydrophenanthrene-1-carboxylic acid]", "G(V) shift": "−9.0"}, {"compound": "CC(C)c1ccc2c(c1I)CCC1[C@](C)(C(=O)O)CCC[C@]21C", "note": "(stereo partly drawn) [Wu61, (1R,4aS,E)-8-iodo-7-isopropyl-1,4a-dimethyl-1,2,3,4,4a,9,10,10a-octahydrophenanthrene-1-carboxylic acid]", "G(V) shift": "−18.3"}, {"compound": "CC(C)c1cc2c(cc1I)[C@@]1(C)CCC[C@@](C)(C(=O)O)[C@@H]1CC2=O", "note": "[Wu62, (1R,4aS,10aR)-6-iodo-7-isopropyl-9-oxo-1,4a-dimethyl-1,2,3,4,4a,9,10,10a-octahydrophenanthrene-1-carboxylic acid]", "G(V) shift": "−13.7"}, {"compound": "C=CCO/N=C1\\CC2[C@](C)(C(=O)O)CCC[C@]2(C)c2cc(I)c(C(C)C)cc21", "note": "(stereo partly drawn) [Wu63, (1R,4aS,E)-9-((allyloxy)imino)-6-iodo-7-isopropyl-1,4a-dimethyl-1,2,3,4,4a,9,10,10a-octahydrophenanthrene-1-carboxylic acid]", "G(V) shift": "−19.3"}, {"compound": "CO/N=C1\\CC2[C@](C)(C(=O)O)CCC[C@]2(C)c2cc(I)c(C(C)C)cc21", "note": "(stereo partly drawn) [Wu64, (1R,4aS,E)-6-iodo-7-isopropyl-9-(methoxyimino)-1,4a-dimethyl-1,2,3,4,4a,9,10,10a-octahydrophenanthrene-1-carboxylic acid]", "G(V) shift": "−22.2"}, {"compound": "CC(C)c1ccc2c(c1I)C(=O)C[C@H]1[C@](C)(C(=O)O)CCC[C@]21C", "note": "[Wu68, (1R,4aS,10aR)-8-iodo-7-isopropyl-1,4a-dimethyl-9-oxo-1,2,3,4,4a,9,10,10a-octahydrophenanthrene-1-carboxylic acid]", "G(V) shift": "−26.0"}, {"compound": "CC(C)c1ccc2c(c1Br)C(=O)CC1[C@](C)(C(=O)O)CCC[C@]21C", "note": "(stereo partly shown) [Wu73]", "G(V) shift": "−5.8"}, {"compound": "C=CCON=C1CC2C(C)(C(=O)O)CCCC2(C)c2ccc(C(C)C)c(Br)c21", "note": "(stereo not shown) [Wu75]", "G(V) shift": "−8.6"}, {"compound": "C=Cc1c(C(C)C)ccc2c1CCC1[C@](C)(C(=O)O)CCC[C@]21C", "note": "(stereo partly shown) [Wu76]", "G(V) shift": "−7.7"}, {"compound": "C=Cc1cc2c(cc1C(C)C)CCC1[C@](C)(C(=O)O)CCC[C@]21C", "note": "(stereo partly drawn) [Wu78, (1R,4aS)-7-isopropyl-1,4a-dimethyl-6-vinyl-1,2,3,4,4a,9,10,10a-octahydrophenanthrene-1-carboxylic acid]", "G(V) shift": "−13.2"}, {"compound": "CC(C)c1cc2c(cc1C1CC1)[C@@]1(C)CCC[C@@](C)(C(=O)O)C1CC2", "note": "(stereo partly shown) [Wu81]", "G(V) shift": "−8.2"}, {"compound": "CC=Cc1cc2c(cc1C(C)C)CCC1[C@](C)(C(=O)O)CCC[C@]21C", "note": "(stereo partly shown) [Wu84]", "G(V) shift": "−0.2"}, {"compound": "CC=Cc1c(C(C)C)ccc2c1CCC1[C@](C)(C(=O)O)CCC[C@]21C", "note": "(stereo partly shown) [Wu85]", "G(V) shift": "−1.9"}, {"compound": "CC(C)c1cc2c(cc1I)[C@@]1(C)CCC[C@@](C)(C(=O)O)C1C/C2=N\\O", "note": "(stereo partly drawn) [Wu86, (1R,4aS,E)-9-(hydroxyimino)-6-iodo-7-isopropyl-1,4a-dimethyl-1,2,3,4,4a,9,10,10a-octahydrophenanthrene-1-carboxylic acid]", "G(V) shift": "−21.0"}, {"compound": "CC(C)c1cc2c(cc1I)C1(C)CCCC(C)(C(=O)O)C1CC2=NOCc1ccccc1", "note": "(stereo not shown) [Wu87]", "G(V) shift": "−6.0"}, {"compound": "CC(C)c1ccc2c(c1Br)C(=NO)CC1C(C)(C(=O)O)CCCC21C", "note": "(stereo not shown) [Wu88]", "G(V) shift": "−5.6"}, {"compound": "CC(C)c1ccc2c(c1Br)C(=NOCc1ccccc1)CC1C(C)(C(=O)O)CCCC21C", "note": "(stereo not shown) [Wu89]", "G(V) shift": "−5.2"}, {"compound": "CO/N=C1\\C[C@H]2[C@](C)(C(=O)O)CCC[C@]2(C)c2ccc(C(C)C)c(I)c21", "note": "[Wu90]", "G(V) shift": "−19.2"}, {"compound": "C=CCO/N=C1\\C[C@H]2[C@](C)(C(=O)O)CCC[C@]2(C)c2ccc(C(C)C)c(I)c21", "note": "[Wu91, (1R,4aS,10aR)-9-((allyloxy)imino)-8-iodo-7-isopropyl-1,4a-dimethyl-1,2,3,4,4a,9,10,10a-octahydrophenanthrene-1-carboxylic acid]", "G(V) shift": "−12.5"}, {"compound": "CC(C)c1cc(Cl)c2c(c1)CCC1C(C)(C(=O)O)CCCC21C", "note": "(stereo not shown) [Wu100]", "G(V) shift": "−2.7"}, {"compound": "CC(C)c1cc(Cl)c2c(c1)C(O)CC1[C@](C)(C(=O)O)CCC[C@]21C", "note": "(stereo partly shown) [Wu101]", "G(V) shift": "−9.6"}, {"compound": "CC(C)c1cc(Cl)c2c(c1)C(O)C[C@H]1[C@](C)(C(=O)O)CCC[C@]21C", "note": "(stereo partly shown) [Wu102]", "G(V) shift": "−2.8"}, {"compound": "C=CCO/N=C1\\C[C@H]2[C@](C)(C(=O)O)CCC[C@]2(C)c2c(Cl)cc(C(C)C)cc21", "note": "[Wu104, (1R,4aS,10aR)-9-((allyloxy)imino)-5-chloro-7-isopropyl-1,4a-dimethyl-1,2,3,4,4a,9,10,10a-octahydrophenanthrene-1-carboxylic acid]", "G(V) shift": "−12.9"}, {"compound": "CO/N=C1\\C[C@H]2[C@](C)(C(=O)O)CCC[C@]2(C)c2c(Cl)cc(C(C)C)cc21", "note": "[Wu105, (1R,4aS,10aR)-5-chloro-7-isopropyl-9-(methoxyimino)-1,4a-dimethyl-1,2,3,4,4a,9,10,10a-octahydrophenanthrene-1-carboxylic acid]", "G(V) shift": "−23.2"}, {"compound": "CC(C)c1cc(Cl)c2c(c1O)CC[C@H]1[C@](C)(C(=O)O)CCC[C@]21C", "note": "[Wu106]", "G(V) shift": "−3.4"}, {"compound": "CC(C)c1cc2c(cc1F)[C@@]1(C)CCC[C@@](C)(C(=O)O)[C@@H]1CC2", "note": "[Wu108, (1R,4aS,10aR)-6-fluoro-7-isopropyl-1,4a-dimethyl-1,2,3,4,4a,9,10,10a-octahydrophenanthrene-1-carboxylic acid]", "G(V) shift": "−10.4"}, {"compound": "CC(C)c1cc(Cl)c2c(c1Cl)CC[C@H]1[C@](C)(C(=O)O)CCC[C@]21C", "note": "[Wu112]", "G(V) shift": "−14.7"}, {"compound": "CC(C)c1ccc2c(c1F)C(=O)C[C@H]1[C@](C)(C(=O)O)CCC[C@]21C", "note": "[Wu113]", "G(V) shift": "−3.6"}, {"compound": "C=CCON=C1CC2C(C)(C(=O)O)CCCC2(C)c2c(Cl)cc(C(C)C)c(Cl)c21", "note": "(stereo not shown) [Wu114]", "G(V) shift": "−13.3"}]}]}
